The IC50 is the concentration at which inhibition is half-maximal. Lower therefore signals greater potency.

Some results are limits rather than exact numbers.

The source of these data is patent publication US20150353495A1 (PORTOLA PHARMACEUTICALS, INC., priority 2010, published 2015).

Holding throughout (type): biochemical
The target of one experiment is T1, JAK2 (Homo sapiens, UniProt O60674).
T1 construct: 5 μl of catalytic domain recombinant Kinase enzyme+Tyr peptide substrate (Invitrogen, CA); purchased Invitrogen
The experiment can be described thus: Z'-LYTE kinase assay JAK2. A digest of the protocol: (§1)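 In duplicate wells, each test molecule (1% final DMSO) is incubated with recombinant kinase catalytic domain, Tyr6 peptide substrate and ATP for one hour at room temperature; a site-specific protease is then added for another hour before fluorescence reading.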

Another experiment deals with T2, JAK1 (Homo sapiens, UniProt P23458).
T2 construct: 5 μl of catalytic domain recombinant Kinase enzyme+Tyr peptide substrate (Invitrogen, CA); purchased Invitrogen
As to the kind of experiment: Z'-LYTE kinase assay JAK1. A digest of the protocol:
as §1

The next experiment addresses T3, JAK3 (Homo sapiens, UniProt P52333).
T3 construct: 5 μl of catalytic domain recombinant Kinase enzyme+Tyr peptide substrate (Invitrogen, CA); purchased Invitrogen
As to the kind of experiment: Z'-LYTE kinase assay JAK3. Put shortly:
as §1

T2 sequence (P23458 875-1153 limits assumed): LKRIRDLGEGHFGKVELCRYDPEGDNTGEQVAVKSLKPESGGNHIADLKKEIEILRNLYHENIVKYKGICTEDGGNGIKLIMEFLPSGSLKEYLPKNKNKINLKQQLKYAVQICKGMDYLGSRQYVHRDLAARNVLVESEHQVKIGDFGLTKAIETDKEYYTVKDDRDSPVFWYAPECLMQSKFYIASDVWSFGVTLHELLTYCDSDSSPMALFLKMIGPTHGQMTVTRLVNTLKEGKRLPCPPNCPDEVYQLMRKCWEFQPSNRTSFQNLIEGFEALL
T3 sequence (P52333 822-1111 limits assumed): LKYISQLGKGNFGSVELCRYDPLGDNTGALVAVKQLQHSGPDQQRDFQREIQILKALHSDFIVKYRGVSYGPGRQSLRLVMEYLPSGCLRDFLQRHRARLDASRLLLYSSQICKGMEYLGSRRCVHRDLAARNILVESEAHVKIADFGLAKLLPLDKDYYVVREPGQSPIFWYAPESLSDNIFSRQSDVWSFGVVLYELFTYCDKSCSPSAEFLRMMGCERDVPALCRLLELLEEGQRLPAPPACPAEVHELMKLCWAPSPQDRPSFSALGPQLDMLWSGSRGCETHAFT
T1 sequence (O60674 849-1124 limits assumed): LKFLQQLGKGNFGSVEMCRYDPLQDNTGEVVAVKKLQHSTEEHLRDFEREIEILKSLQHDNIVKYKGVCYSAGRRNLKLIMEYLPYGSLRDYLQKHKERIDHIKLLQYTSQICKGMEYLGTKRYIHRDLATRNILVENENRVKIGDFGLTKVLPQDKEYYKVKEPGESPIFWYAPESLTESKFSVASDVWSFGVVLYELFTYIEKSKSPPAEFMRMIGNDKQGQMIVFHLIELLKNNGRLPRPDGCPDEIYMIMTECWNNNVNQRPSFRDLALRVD

Turning to `CCC(=O)N1CCC(c2ccc(Nc3cc(NCc4cccc(-c5cccnc5)c4)c(C(N)=O)cn3)cc2)CC1` [Example 416, 6-(4-(1-propionylpiperidin-4-yl)phenylamino)-4-(3-(pyridine-3-yl)benzylamino)nicotinamide], the IC50 is above 1000 nM against JAK2, above 1000 nM against JAK1 and 1 to 10 nM against JAK3.

For `CN(C)S(=O)(=O)Cc1ccc(Nc2cc(NCc3cccc(-c4ccncc4)c3)c(C(N)=O)cn2)cc1` [Example 417, 6-(4-((N,N-dimethylsulfamoyl)methyl)phenylamino)-4-(3-(pyridine-4-yl)benzylamino)nicotinamide], the figures for the IC50 against JAK2, against JAK1 and against JAK3 were 100 to 1000 nM, 100 to 1000 nM and 1 to 10 nM, respectively.

On to `CS(=O)(=O)Cc1ccc(Nc2cc(NCc3cccc(-c4ccncc4)c3)c(C(N)=O)cn2)cc1` [Example 418, 6-(4-(methylsulfonylmethyl)phenylamino)-4-(3-(pyridine-4-yl)benzylamino)nicotinamide], for which the figures for the IC50 at JAK2, at JAK1 and against JAK3 were 100 to 1000 nM, 100 to 1000 nM and 1 to 10 nM, respectively.

For `CN(C)C(=O)C1CCN(c2ccc(Nc3cc(NCc4cccc(-c5ccncc5)c4)c(C(N)=O)cn3)cc2)CC1` [Example 419, 6-(4-(4-(dimethylcarbamoyl)piperidin-1-yl)phenylamino)-4-(3-(pyridine-4-yl)benzylamino)nicotinamide], the IC50 on JAK2 was 100 to 1000 nM; against JAK1, above 1000 nM; on JAK3, 1 to 10 nM.

Take `CN(C)C(=O)c1ccc(Nc2cc(NCc3cccc(-c4ccccn4)c3)c(C(N)=O)cn2)cc1` [Example 421, 6-(4-(dimethylcarbamoyl)phenylamino)-4-(3-(pyridine-2-yl)benzylamino)nicotinamide]: the IC50 against JAK2 was 100 to 1000 nM; at JAK1, above 1000 nM; at JAK3 it was 10 to 100 nM.

Take `CN(C)C(=O)c1ccc(Nc2cc(NCc3cccc(-n4cccn4)c3)c(C(N)=O)cn2)cc1` [Example 422, 4-(3-(1H-pyrazol-1-yl)benzylamino)-6-(4-(dimethylcarbamoyl)phenylamino)nicotinamide]: the IC50 is 100 to 1000 nM against JAK2, above 1000 nM against JAK1 and 10 to 100 nM on JAK3.

Consider `NC(=O)c1cnc(Nc2ccc(S(=O)(=O)N3CCC3)cc2)nc1NCc1ccccc1` [Example 434, 2-(4-(azetidin-1-ylsulfonyl)phenylamino)-4-(benzylamino)pyrimidine-5-carboxamide], for which the IC50 was 100 to 1000 nM against JAK2, above 1000 nM at JAK1 and 10 to 100 nM on JAK3.

Take `NC(=O)c1cnc(Nc2ccc(F)c(C(=O)N3CCC3)c2)cc1NCc1ccccc1` [Example 439, 6-(3-(azetidine-1-carbonyl)-4-fluorophenylamino)-4-(benzylamino)nicotinamide]: the IC50 against JAK2 was 100 to 1000 nM; against JAK1, 100 to 1000 nM; on JAK3, 10 to 100 nM.

Consider `CN(C)C(=O)c1cc(Nc2cc(NCc3ccccc3)c(C(N)=O)cn2)ccc1N(C)C` [Example 440, 4-(benzylamino)-6-(4-(dimethylamino)-3-(dimethylcarbamoyl)phenylamino)nicotinamide], for which the IC50 fell in the range of 100 to 1000 nM on JAK2, 100 to 1000 nM against JAK1 and 10 to 100 nM against JAK3.

For `COc1cc(Nc2cc(NC[C@H]3CCCN(C(C)=O)C3)c(C(N)=O)cn2)ccc1C(=O)N(C)C` [Example 441, (R)-4-((1-acetylpiperidin-3-yl)methylamino)-6-(4-(dimethylcarbamoyl)-3-methoxyphenylamino)nicotinamide], the IC50 is 100 to 1000 nM at JAK2, above 1000 nM against JAK1 and 10 to 100 nM at JAK3.

On to `CC(=O)N1CCC[C@H](CNc2cc(Nc3ccc(C(=O)N(C)C)c(Cl)c3)ncc2C(N)=O)C1` [Example 442, (R)-4-((1-acetylpiperidin-3-yl)methylamino)-6-(3-chloro-4-(dimethylcarbamoyl)phenylamino)nicotinamide], for which the IC50 is 100 to 1000 nM against JAK2, above 1000 nM on JAK1 and 10 to 100 nM against JAK3.

Consider `CC(=O)N1CCC[C@H](CNc2cc(Nc3ccc(F)c(C(=O)N4CCC4)c3)ncc2C(N)=O)C1` [Example 444, (R)-4-((1-acetylpiperidin-3-yl)methylamino)-6-(3-(azetidine-1-carbonyl)-4-fluorophenylamino)nicotinamide], for which the IC50 at JAK2 was above 1000 nM; at JAK1 it was above 1000 nM; against JAK3 it was 100 to 1000 nM.

Consider `CC(=O)N1CCC[C@H](CNc2cc(Nc3ccc(C(=O)N(C)C)c(N(C)C)c3)ncc2C(N)=O)C1` [Example 445, (R)-4-((1-acetylpiperidin-3-yl)methylamino)-6-(3-(dimethylamino)-4-(dimethylcarbamoyl)phenylamino)nicotinamide], for which the IC50 on JAK2 was 100 to 1000 nM; against JAK1, above 1000 nM; against JAK3, 100 to 1000 nM.

As for `Cc1cc(Nc2cc(NCc3cccc(F)c3F)c(C(N)=O)cn2)ccc1C(=O)N1CCC1` [Example 454, 6-(4-(azetidine-1-carbonyl)-3-methylphenylamino)-4-(2,3-difluorobenzylamino)nicotinamide], the IC50 against JAK2 was 10 to 100 nM; at JAK1, 100 to 1000 nM; against JAK3, below 1 nM.

As to `Cc1cc(Nc2cc(NCc3cccc(F)c3F)c(C(N)=O)cn2)ccc1C(=O)N1CCOCC1` [Example 455, 4-(2,3-difluorobenzylamino)-6-(3-methyl-4-(morpholine-4-carbonyl)phenylamino)nicotinamide], the values for the IC50 against JAK2, against JAK1 and at JAK3 were 10 to 100 nM, 100 to 1000 nM and 1 to 10 nM, respectively.

For the compound `Cc1cc(Nc2cc(NCc3cccc(F)c3F)c(C(N)=O)cn2)ccc1C(=O)N1CCCC1` [Example 456, 4-(2,3-difluorobenzylamino)-6-(3-methyl-4-(pyrrolidine-1-carbonyl)phenylamino)nicotinamide], the IC50 on JAK2 is 10 to 100 nM; against JAK1, 100 to 1000 nM; against JAK3 it was below 1 nM.

On to `Cc1cc(Nc2cc(NCc3cccc4ccsc34)c(C(N)=O)cn2)ccc1C(=O)N1CCOCC1` [Example 459, 4-(benzo[b]thiophen-7-ylmethylamino)-6-(3-methyl-4-(morpholine-4-carbonyl)phenylamino)nicotinamide], for which the 50% inhibitory concentration (IC50) on JAK2 was in the range of 10 to 100 nM; at JAK1, 100 to 1000 nM; on JAK3 it was 1 to 10 nM.

On to `Cc1cc(Nc2cc(NCc3cccc4[nH]ccc34)c(C(N)=O)cn2)ccc1C(=O)N1CCC1` [Example 460, 4-((1H-indol-4-yl)methylamino)-6-(4-(azetidine-1-carbonyl)-3-methylphenylamino)nicotinamide], for which the results for the IC50 on JAK2, against JAK1 and against JAK3 were 1 to 10 nM, 1 to 10 nM and below 1 nM, respectively.

Regarding `Cc1cc(Nc2cc(NCc3cccc4[nH]ccc34)c(C(N)=O)cn2)ccc1C(=O)N1CCOCC1` [Example 462, 4-((1H-indol-4-yl)methylamino)-6-(3-methyl-4-(morpholine-4-carbonyl)phenylamino)nicotinamide], the IC50 is 1 to 10 nM at JAK2, 1 to 10 nM on JAK1 and below 1 nM on JAK3.

In the case of `Cc1cc(Nc2cc(NCc3cccc4cc[nH]c34)c(C(N)=O)cn2)ccc1C(=O)N1CCC1` [Example 463, 4-((1H-indol-7-yl)methylamino)-6-(4-(azetidine-1-carbonyl)-3-methylphenylamino)nicotinamide], the IC50 on JAK2 was 10 to 100 nM; against JAK1, above 1000 nM; against JAK3 it was 1 to 10 nM.

For the compound `COC(=O)N(C)c1ccc(Nc2cc(NCc3cccc4ccsc34)c(C(N)=O)cn2)cc1` [Example 465, methyl 4-(4-(benzo[b]thiophen-7-ylmethylamino)-5-carbamoylpyridin-2-ylamino)phenyl(methyl)carbamate], the results for the IC50 at JAK2, at JAK1 and at JAK3 were 100 to 1000 nM, above 1000 nM and 1 to 10 nM, respectively.

`CCC(=O)N(C)c1ccc(Nc2cc(NCc3cccc4ccsc34)c(C(N)=O)cn2)cc1` [Example 466, 4-(benzo[b]thiophen-7-ylmethylamino)-6-(4-(N-methylpropionamido)phenylamino)nicotinamide]: the IC50 on JAK2 was in the range of 100 to 1000 nM; at JAK1, 100 to 1000 nM; at JAK3, 1 to 10 nM.

With `CN(C(=O)C1CC1)c1ccc(Nc2cc(NCc3cccc4ccsc34)c(C(N)=O)cn2)cc1` [Example 467, 4-(benzo[b]thiophen-7-ylmethylamino)-6-(4-(N-methylcyclopropanecarboxamido)phenylamino)nicotinamide], the IC50 against JAK2 fell in the range of 100 to 1000 nM; on JAK1 it was 100 to 1000 nM; against JAK3 it was 10 to 100 nM.

On to `CC(=O)N(C)c1ccc(Nc2cc(NCc3cccc4ccsc34)c(C(N)=O)cn2)cc1` [Example 468, 4-(benzo[b]thiophen-7-ylmethylamino)-6-(4-(N-methylacetamido)phenylamino)nicotinamide], for which the IC50 against JAK2 lay within 10 to 100 nM; on JAK1, 100 to 1000 nM; at JAK3 it was 1 to 10 nM.

Regarding `CC(=O)N(C)c1ccc(Nc2cc(NCc3cccc4[nH]ccc34)c(C(N)=O)cn2)cc1` [Example 469, 4-((1H-indol-4-yl)methylamino)-6-(4-(N-methylacetamido)phenylamino)nicotinamide], the IC50 at JAK2 lay in the range of 10 to 100 nM; at JAK1, 10 to 100 nM; against JAK3, 1 to 10 nM.

`CC(=O)N(C)c1ccc(Nc2cc(NCc3cccc4cc[nH]c34)c(C(N)=O)cn2)cc1` [Example 470, 4-((1H-indol-7-yl)methylamino)-6-(4-(N-methylacetamido)phenylamino)nicotinamide]: the IC50 is 100 to 1000 nM against JAK2, above 1000 nM against JAK1 and 10 to 100 nM at JAK3.

As for `CC(=O)Nc1ccc(Nc2cc(NCc3cccc4ccsc34)c(C(N)=O)cn2)cc1` [Example 471, 6-(4-acetamidophenylamino)-4-(benzo[b]thiophen-7-ylmethylamino)nicotinamide], the IC50 lay in the range of 10 to 100 nM at JAK2, 10 to 100 nM at JAK1 and 1 to 10 nM against JAK3.
